Reference: article PMC3399898, “Immobilization of β-Galactosidase onto Functionalized Graphene Nano-sheets Using Response Surface Methodology and Its Analytical Applications” (PLoS ONE, 2012)

System: T1, Chick pea β-galactosidase (CpGAL)
T1 construct: native enzyme purified from dry seeds (local market), homogeneous on SDS-PAGE; soluble (free) form
Assay: steady-state kinetics, Lineweaver-Burk plot
Type: biochemical, Cicer arietinum
Conditions: soluble enzyme; optimum pH 2.8, 60 °C printed; pH of the Km assay not stated; read-out: Soluble / ONPG
Excerpt: steady-state kinetics, Lineweaver-Burk plot on Chick pea β-galactosidase (CpGAL)

Km: 1730 µM
SMILES: O=[N+]([O-])c1ccccc1O[C@@H]1O[C@H](CO)[C@H](O)[C@H](O)[C@H]1O [ONPG]
